Measurements taken from publication PMC9072415, “Activation of cannabinoid receptors in breast cancer cells improves osteoblast viability in cancer-bone interaction model while reducing breast cancer cell survival and migration” (Scientific Reports, 2022).
Entries after “also recorded” stand apart in the source; their conditions may differ.

What was measured:
Assay type in all cases: cell-based
[1] = tested on: cellular ROS in MDA-MB-231 cells; experiment: DCFDA cellular ROS detection assay; settings: 30 µM ACEA, 15 µM GW405833 or combination, 6 h
Procedure: Cellular reactive oxygen species (ROS) were monitored using the 2´,7´-dichlorofluorescin diacetate (DCFDA) Cellular ROS Detection Assay Kit (ab113851) (Abcam, Cambridge, UK) according to the manufacturer's instruction. In brief, MDA-MB-231 cells were seeded into a 96-black well plates with clear bottom at a density of 2.5 × 10^4 cells/well and grown overnight. Then, the cells were treated with ACEA, GW405833 or the combination of both for 6 h. At the end of the treatment, fluorescence signal of DCF was measured by using a multimode microplate reader (Spark 10 M) (Tecan Austria GmbH, Männedorf, Austria) with the excitation and emission wavelengths of 485 and 535 nm, respectively.

MDA-MB-231 cells [2] = experiment: MTT cell viability assay, MDA-MB-231 cells; settings: for IC50: MTT
Procedure: (§1) Osteoblast-like UMR-106 cells (RRID CVCL_3617; ATCC CRL-1661) and triple-negative breast cancer cells, MDA-MB-231 (RRID CVCL_0062; ATCC HTB-26) were obtained from American Type Culture Collection (ATCC, VA, USA). Cells were cultured in Dulbecco’s modified Eagle’s medium (DMEM) (Sigma-Aldrich, MO, USA) containing 10% (v/v) fetal bovine serum (FBS) and 1% penicillin–streptomycin (Gibco, Texas, USA) and maintained under 5% CO2 at 37 °C, and sub-cultured according to the manufacturer’s instruction.
(§2) Cell viability was assessed using the 3-(4,5-dimethylthiazol-2-yl)-2,5-diphenyltetrazolium bromide (MTT) colorimetric assay. The assay was performed according to a previously described method. In brief, cells were seeded into a 96-well plate at a density of 1.0 × 10^4 cells/well and allowed to attach overnight. Thereafter, they were treated with ACEA, GW405833 or the combination of both for the indicated times. MTT (Invitrogen, CA, USA) solution was added to the final concentration of 0.5 mg/mL in 100 µL in serum-free DMEM and incubated at 37 °C for 4 h, then stop solution was added and thoroughly mixed. The optical density at 595 nm was measured using a microplate reader (Multiskan EX) (Thermo Fisher Scientific, MA, USA). The percentage of cell viability was calculated based on the absorbance ratio between cells treated with the compounds and control multiplied by 100 (percent cell viability normalized to control).
(§3) All results are expressed as means ± standard errors (SEM). Unless otherwise specified, statistical analysis for multiple comparisons was performed using one-way analysis of variance (ANOVA). The difference between pairs of means was analyzed by Tukey post-test. A p-value < 0.05 was considered statistically significant. Calculation of the inhibitory concentration at 50% (IC50) and all statistical analyses were performed using GraphPad Prism 9 (GraphPad Software Inc., USA).

MDA-MB-231 cells [3] = experiment: Wound healing cell migration assay; settings: for cell migration (wound closure): 15 µM
Procedure: Cell migration was measured by wound healing assay modified from Lertsuwan et al.,[27]. Briefly, MDA-MB-231 cells were seeded into a 24-well plate at a density of 4.0 × 10^5 cells/well and allowed to attach overnight. Thereafter, wound was created with a sterile 200-µL pipette tip, then the cells were treated with ACEA, GW405833 or the combination of both. Series of images of the scratched wound were taken under a phase contrast inverted microscope (model AE31) (Motic, China) from 0 to 36 h. The closure of the wound representing migration ability of the cells was measured by using ImageJ software (National Institutes of Health). Cell migration was calculated as the percentage of wound closure area compared to the initial scratched area.

[4] = tested on: p-NF-κB p65 in MDA-MB-231 cells; experiment: Western blot of p-NF-κB p65 expression; settings: individual treatments, 48 h
Procedure: Twenty micrograms of protein samples were resolved by sodium dodecyl sulfate polyacrylamide gel electrophoresis (SDS-PAGE) (Invitrogen) gel before being transferred to nitrocellulose blotting membrane (GE Healthcare, Texas, USA).The membranes were then blocked with 5% (w/v) bovine serum albumin (BSA) (Capricorn Scientific, Hessen, Germany) for 2 h at room temperature, followed by the incubation at 4 °C overnight with primary antibodies. After washing, the membranes were incubated with the appropriate horseradish peroxidase (HRP)-conjugated secondary antibodies. Proteins on the immunoblots were visualized by enhanced chemiluminescence (ECL) (Millipore, MA, USA) and exposed to X-ray film (GE Healthcare). Protein band intensity was quantified using ImageJ software (National Institutes of Health, MD, USA). To relatively quantify the target protein expression, the intensity of target protein band was normalized to β-actin of each lane.

UMR-106 cells [5] = experiment: MTT cell viability assay, UMR-106 cells; settings: for IC50: MTT; for effect of low concentrations on osteoblast growth: UMR-106 osteoblasts
Procedure: as §1, §2, §3

UMR-106 cells [6] = experiment: UMR-106 viability (MTT) with conditioned media from agonist-pretreated MDA-MB-231 cells; settings: MDA-MB-231 pretreated 48 h; CM collected after 48 h in serum-free DMEM
Procedure: To collect CM from MDA-MB-231 cells, cells were seeded into a 6-well plate at a density of 5.0 × 10^5 cells/well and grown for 24 h until reaching 80–90% confluence. In the pretreatment experiment, cells were treated with either ACEA, GW405833 or a combination of both for 48 h. After that, cells were washed with phosphate buffered saline (PBS) and incubated in serum-free DMEM. Forty-eight hours later, CM from these cells was harvested, filtered through a syringe filter (pore size of 0.2 µm; Sartorius Stedim Biotech GmbH, Göttingen, Germany) to remove cells and debris, and stored at − 80 °C for later experiments (Fig. 1a).
as §2, with “MTT (Invitrogen, CA, USA) solution was added to the final concentration of 0.5 mg/mL in 100 µL in serum-free DMEM and incubated at 37 °C for 4 h, then stop solution was added and thoroughly mixed.” left out

| SMILES | cellular ROS levels compared to control group [1] | Fold differences between IC50 values of UMR-106 / MDA-MB-231 (MDA-MB-231 cells [2]; 24 h) [fold] | IC50 (MDA-MB-231 cells [2]; 24 h) [µM] | Fold differences between IC50 values of UMR-106 / MDA-MB-231 (MDA-MB-231 cells [2]; 48 h) [fold] | IC50 (MDA-MB-231 cells [2]; 48 h) [µM] | Fold differences between IC50 values of UMR-106 / MDA-MB-231 (MDA-MB-231 cells [2]; 72 h) [fold] | IC50 (MDA-MB-231 cells [2]; 72 h) [µM] | Fold differences between IC50 values of UMR-106 / MDA-MB-231 (MDA-MB-231 cells [2]; Average of 24, 48 and 72 h) [fold] | cell migration (wound closure) (MDA-MB-231 cells [3]; 24 h) | cell migration (wound closure) (MDA-MB-231 cells [3]; 36 h) | level of p-NF-κB p65 [4] | IC50 (UMR-106 cells [5]; 24 h) [µM] | IC50 (UMR-106 cells [5]; 48 h) [µM] | IC50 (UMR-106 cells [5]; 72 h) [µM] | effect of low concentrations on osteoblast growth (UMR-106 cells [5]) | effect of pretreatment of MDA-MB-231 cells on CM-mediated suppression of UMR-106 cell viability (UMR-106 cells [6]) | percentage of wound closure (cell migration) (MDA-MB-231 cells [3]; 20 µM, 24 h) | percentage of wound closure (cell migration) (MDA-MB-231 cells [3]; 30 µM, 24 h) | percentage of wound closure (cell migration) (MDA-MB-231 cells [3]; 30 µM, 36 h) |
| --- | --- | --- | --- | --- | --- | --- | --- | --- | --- | --- | --- | --- | --- | --- | --- | --- | --- | --- | --- |
| COc1ccc2c(c1)c(CCN1CCOCC1)c(C)n2C(=O)c1cccc(Cl)c1Cl [GW405833] | remained unchanged | 6.83 | 24.6 | 7.18 | 16.6 | 6.27 | 12.7 | 6.76 | significant reduction | significant cell migration suppression | remained unchanged | 168 | 119 | 79.9 | growth stimulatory effect | significant recovery |  |  |  |
| CCCCC/C=C\C/C=C\C/C=C\C/C=C\CCCC(=O)NCCCl [ACEA] | remained unchanged | 1.54 | 67.8 | 1.63 | 38 | 1.16 | 32.8 | 1.44 |  |  | remained unchanged | 104 | 62 | 38 | growth stimulatory effect | did not alter CM-mediated osteoblast suppression | significantly decreased | significantly decreased; also recorded: significant reduction | significantly decreased |
